We go through seven compounds from patent publication EP0934933A1, “Phthalazinones” (Byk Gulden Lomberg Chemische Fabrik GmbH, priority 1998, dated 1999).

This test concerns PDE4. The experiment in a line: Inhibition of PDE 4 activity (method of Bauer and Schwabe, adapted to microtitre plates). The test is classed as biochemical. As to conditions: measured as -logIC50 (mol/l).
Regarding `CCOc1ccc(-c2nn(CC(=O)c3ccccc3)c(=O)c3ccccc23)cc1OCC` [Compound 2, 2-(2-Phenyl-2-oxoethyl)-4-(3,4-diethoxyphenyl)-2H-phthalazin-1-one], the “-logIC50” value stood at 7.01.
As for `CCOc1cc(-c2nn(CC(=O)c3ccccc3)c(=O)c3ccccc23)ccc1OC` [Compound 3, 4-(3-Ethoxy-4-methoxyphenyl)-2-(2-phenyl-2-oxoethyl)-2H-phthalazin-1-one], the figure is 7.28; as for `COc1ccc(-c2nn(CC(=O)c3ccccc3)c(=O)c3ccccc23)cc1OC1CCCC1` [Compound 4, 4-(3-Cyclopentyloxy-4-methoxyphenyl)-2-(2-phenyl-2-oxoethyl)-2H-phthalazin-1-one], 7.09.
Take `COc1ccc(-c2nn(CC(=O)c3ccccc3)c(=O)c3ccccc23)cc1OC(F)F` [Compound 5, 4-(3-Difluoromethoxy-4-methoxyphenyl)-2-(2-phenyl-2-oxoethyl)-2H-phthalazin-1-one]: the “-logIC50” value was 7.14.
The same measure for `COc1ccc(-c2nn(CC(=O)c3ccccc3OC)c(=O)c3ccccc23)cc1OC` [Compound 7, 4-(3,4-Dimethoxyphenyl)-2-[2-(2-methoxyphenyl)-2-oxoethyl]-2H-phthalazin-1-one]: 7.52; for `COc1ccc(OC)c(C(=O)Cn2nc(-c3ccc(OC)c(OC)c3)c3ccccc3c2=O)c1` [Compound 10, 4-(3,4-Dimethoxyphenyl)-2-[2-(2,5-dimethoxyphenyl)-2-oxoethyl]-2H-phthalazin-1-one]: 6.99; for `COc1ccc(-c2nn(CC(=O)c3cc(Cl)c(N)c(Cl)c3)c(=O)c3ccccc23)cc1OC` [Compound 12, 4-(3,4-Dimethoxyphenyl)-2-[2-(4-amino-3,5-dichlorophenyl)-2-oxoethyl]-2H-phthalazin-1-one]: 6.85.
